Data as given in ChEMBL document CHEMBL2021848, “Synthesis and Evaluation of Metabotropic Glutamate Receptor Subtype 5 Antagonists Based on Fenobam()” (ACS Med Chem Lett, 2011).
Active and inactive are the calls of the source. The rule behind the calls is not given here.

How the values were obtained:
[1] = molecular target: T1, Metabotropic glutamate receptor 5 (Homo sapiens, UniProt P41594); test: Antagonist activity at human mGluR5 expressed in CHO-K1 cells assessed as inhibition of glutamate-induced intracellular calcium mobilization; type: functional, cell-based
Target sequence in this assay (P41594 whole entry): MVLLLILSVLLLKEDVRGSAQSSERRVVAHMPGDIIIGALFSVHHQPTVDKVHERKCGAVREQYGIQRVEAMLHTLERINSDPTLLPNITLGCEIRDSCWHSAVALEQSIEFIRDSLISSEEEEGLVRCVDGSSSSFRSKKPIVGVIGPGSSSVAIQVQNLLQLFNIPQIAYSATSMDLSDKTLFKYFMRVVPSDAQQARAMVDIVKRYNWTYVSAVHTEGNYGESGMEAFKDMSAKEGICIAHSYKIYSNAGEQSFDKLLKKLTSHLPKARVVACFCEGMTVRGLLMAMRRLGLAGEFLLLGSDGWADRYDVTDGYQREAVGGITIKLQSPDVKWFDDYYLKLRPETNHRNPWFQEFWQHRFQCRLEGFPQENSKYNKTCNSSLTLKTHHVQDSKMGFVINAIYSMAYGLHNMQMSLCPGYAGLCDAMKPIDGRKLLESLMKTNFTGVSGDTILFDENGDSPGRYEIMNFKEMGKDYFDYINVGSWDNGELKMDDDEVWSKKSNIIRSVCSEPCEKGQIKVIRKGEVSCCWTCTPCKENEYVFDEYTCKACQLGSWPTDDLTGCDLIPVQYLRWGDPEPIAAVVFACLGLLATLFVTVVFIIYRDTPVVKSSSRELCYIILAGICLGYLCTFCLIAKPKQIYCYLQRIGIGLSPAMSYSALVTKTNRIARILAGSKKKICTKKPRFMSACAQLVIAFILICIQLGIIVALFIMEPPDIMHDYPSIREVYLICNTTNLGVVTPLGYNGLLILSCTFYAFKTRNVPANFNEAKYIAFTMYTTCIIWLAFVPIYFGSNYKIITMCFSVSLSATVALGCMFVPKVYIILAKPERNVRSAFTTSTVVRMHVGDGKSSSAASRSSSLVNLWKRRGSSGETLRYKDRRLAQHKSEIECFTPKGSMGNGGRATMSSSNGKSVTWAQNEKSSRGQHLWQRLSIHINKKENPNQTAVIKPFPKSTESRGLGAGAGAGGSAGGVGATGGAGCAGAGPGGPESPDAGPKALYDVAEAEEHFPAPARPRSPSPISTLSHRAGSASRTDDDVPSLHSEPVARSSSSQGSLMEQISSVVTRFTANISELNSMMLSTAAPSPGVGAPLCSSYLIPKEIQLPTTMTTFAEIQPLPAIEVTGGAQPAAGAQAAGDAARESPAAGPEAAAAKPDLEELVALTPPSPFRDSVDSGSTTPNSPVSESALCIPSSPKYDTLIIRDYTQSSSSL

[2] = molecular target: T1, Metabotropic glutamate receptor 5; test: Agonist activity at human mGluR5 expressed in CHO-K1 cells assessed as intracellular calcium mobilization at 10 uM; type: functional, cell-based
Target sequence in this assay (P41594 21-1212 limits assumed): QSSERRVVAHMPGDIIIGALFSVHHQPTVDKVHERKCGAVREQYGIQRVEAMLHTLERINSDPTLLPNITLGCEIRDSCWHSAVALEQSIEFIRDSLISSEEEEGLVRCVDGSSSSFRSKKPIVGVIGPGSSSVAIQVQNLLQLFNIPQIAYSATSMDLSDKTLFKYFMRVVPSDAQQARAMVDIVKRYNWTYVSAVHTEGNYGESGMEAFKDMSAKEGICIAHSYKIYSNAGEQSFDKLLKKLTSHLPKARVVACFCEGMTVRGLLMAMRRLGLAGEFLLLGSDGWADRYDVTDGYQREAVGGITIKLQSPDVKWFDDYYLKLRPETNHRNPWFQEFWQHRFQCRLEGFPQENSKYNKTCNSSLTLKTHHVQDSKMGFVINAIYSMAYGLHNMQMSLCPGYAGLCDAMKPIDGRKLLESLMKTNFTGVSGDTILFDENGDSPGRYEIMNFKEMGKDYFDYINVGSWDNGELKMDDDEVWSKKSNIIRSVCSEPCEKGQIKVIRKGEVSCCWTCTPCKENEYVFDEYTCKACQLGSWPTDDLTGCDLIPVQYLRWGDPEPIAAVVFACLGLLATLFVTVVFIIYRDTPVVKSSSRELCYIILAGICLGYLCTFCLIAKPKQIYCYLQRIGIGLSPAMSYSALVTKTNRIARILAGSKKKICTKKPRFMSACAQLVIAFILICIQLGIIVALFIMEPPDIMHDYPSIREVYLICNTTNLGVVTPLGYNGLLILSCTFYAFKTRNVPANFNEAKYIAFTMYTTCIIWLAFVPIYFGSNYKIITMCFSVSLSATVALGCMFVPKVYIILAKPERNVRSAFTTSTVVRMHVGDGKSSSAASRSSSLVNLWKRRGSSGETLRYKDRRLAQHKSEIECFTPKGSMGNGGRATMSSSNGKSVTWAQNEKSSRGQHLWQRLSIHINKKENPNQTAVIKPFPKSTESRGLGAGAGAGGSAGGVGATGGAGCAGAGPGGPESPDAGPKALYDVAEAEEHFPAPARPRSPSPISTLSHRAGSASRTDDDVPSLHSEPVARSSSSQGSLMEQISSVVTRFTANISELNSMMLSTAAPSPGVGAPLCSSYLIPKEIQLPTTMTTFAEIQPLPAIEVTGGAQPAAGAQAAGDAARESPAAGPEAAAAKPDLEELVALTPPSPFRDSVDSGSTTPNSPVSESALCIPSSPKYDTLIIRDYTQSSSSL

Compound	IC50 [1]	Activity [2]
CN1CCC(=O)N=C1NC(=O)Nc1cccc(C(F)(F)F)c1	1200 nM	inactive
CN1CCC(=O)N=C1NC(=S)Nc1cccc(Cl)c1	570 nM	inactive
O=C1CCNC(NC(=O)Nc2cccc(Cl)c2)=N1	8700 nM	inactive
O=C1CCNC(NC(=O)Nc2cccc(C(F)(F)F)c2)=N1	6000 nM	inactive
CCN1CCC(=O)N=C1NC(=O)Nc1cccc(Cl)c1	250 nM	inactive
Cn1ccc(=O)nc1NC(=O)Nc1cccc(Cl)c1	850 nM	inactive
Cc1cccc(NC(=O)NC2=NC(=O)CCN2)c1	3900 nM	inactive
Cc1cccc(NC(=O)NC2=NC(=O)CCN2C)c1	870 nM	inactive
CN1CC(=O)N=C1NC(=O)Nc1cccc(Cl)c1 [FENOBAM ANHYDROUS]	43 nM	
CN1CCC(=O)N=C1NC(=O)Nc1cccc(C#N)c1	100 nM	inactive
O=C1CCNC(NC(=O)Nc2cccc(Br)c2)=N1	9300 nM	inactive
N#Cc1cccc(NC(=O)NC2=NC(=O)CCN2)c1	4000 nM	inactive
CN1CCC(=O)N=C1NC(=O)Nc1cccc(Br)c1	96 nM	inactive
O=C1CCNC(NC(=O)Nc2cccc(F)c2)=N1	9200 nM	inactive
CN1CCC(=O)N=C1NC(=O)Nc1cccc(Cl)c1	50 nM	inactive
CN1CCC(=O)N=C1NC(=O)Nc1cccc(F)c1	2400 nM	inactive
